The experiment deals with HIV-1 (H9/IIIB strain). Put plainly: Viking assay: antiviral potency in a multiple round HIV-1 infection assay in MT4-GFP cells. The experiment is classed as cell-based. The following applies: MT4-GFP cells infected with HIV-1 H9/IIIB, inhibition of reproductive ratio R0. The procedure:
Assessing Antiviral Potency in a Multiple Round HIV-1 Infection Assay (Viking Assay)
The antiviral activity of the tenofovir prodrugs of the Examples herein was assessed in an assay that measures the rate of replication of HIV in cell culture, termed the Viking assay (VIral KINetics in Green cells) and performed as follows. HIV-1 replication was monitored using MT4-gag-GFP clone D3 (hereafter designated MT4-GFP), which are MT-4 cells modified to harbor a GFP reporter gene, the expression of which is dependent on the HIV-1 expressed proteins tat and rev. Productive infection of an MT4-GFP cell with HIV-1 results in GFP expression approximately 24 h post-infection. MT4-GFP cells were maintained at 37° C./5% CO2/90% relative humidity in RPMI 1640 supplemented with 10% fetal bovine serum, 100 U/ml penicillin/streptomycin, and 400 μg/ml G418 to maintain the reporter gene. For infections, MT4-GFP cells were placed in the same medium lacking G418 and infected overnight with HIV-1 (H9/IIIB strain) virus at an approximate multiplicity of infection of 0.01 in the same incubation conditions. Cells were then washed and re-suspended in either RPMI 1640 supplemented with 10% or 50% normal human serum (NHS) at 1.6×10^5 cells/mL (10% NHS or 50% NHS, respectively). Compound plates were prepared by dispensing compounds dissolved in DMSO into wells of 384 well poly-D-lysine-coated plates (0.2 μl/well) using an ECHO acoustic dispenser. Each compound was tested in a 10-point serial 3-fold dilution (typical final concentrations: 8.4 μM-0.42 nM). Controls included no inhibitor (DMSO only) and a combination of three antiviral agents (efavirenz, indinavir, an in-house integrase strand transfer inhibitor at final concentrations of 4 μM each). Cells were added (50 μL/well) to compound plates and the infected cells were maintained at 37° C./5% CO2/90% relative humidity.
Infected cells were quantified at two time points, ˜48 h and ˜72 h post-infection, by counting the number of green cells in each well using an Acumen eX3 scanner. The increase in the number of green cells over ˜24 h period gives the reproductive ratio, R0, which is typically 5-15 and has been shown experimentally to be in logarithmic phase (data not shown). Inhibition of R0 is calculated for each well, and IC50s determined by non-linear 4-parameter curve fitting.

The mark [1] stands for this setting: Human immunodeficiency virus 1, IIIB, 10% normal human serum, read-out: Viking, IC50 (10% NHS).
Where [2] appears, read: Human immunodeficiency virus 1, IIIB, 50% normal human serum, read-out: Viking, IC50 (50% NHS).

The structures appear in SMILES notation. Where two headings read alike, the source gives them in different places.

Regarding `CCC(CC)=NOP(=O)(CO[C@H](C)Cn1cnc2c(N)ncnc21)N[C@@H](C)C(=O)OC(C)C` (stereo partly drawn) [Example 7, isopropyl (((((R)-1-(6-amino-9H-purin-9-yl)propan-2-yl)oxy)methyl)((pentan-3-ylideneamino)oxy)phosphoryl)-L-alaninate], the IC50 is, setting by setting: under setting [1], 28.2 nM; under setting [2], 84.7 nM.
As to `CC(C)OC(=O)[C@H](C)NP(=O)(CO[C@H](C)Cn1cnc2c(N)ncnc21)ON=C(c1ccccc1)c1ccccc1` (stereo partly drawn) [Example 14, isopropyl (((((R)-1-(6-amino-9H-purin-9-yl)propan-2-yl)oxy)methyl)(((diphenylmethylene)amino)oxy)phosphoryl)-L-alaninate], the IC50 was 18.6 nM under setting [1] and 169 nM under setting [2].
For `CC(C)OC(=O)[C@H](C)NP(=O)(CO[C@H](C)Cn1cnc2c(N)ncnc21)ON=C1CCN(Cc2ccccc2)CC1` (stereo partly drawn) [Example 11, isopropyl (((((R)-1-(6-amino-9H-purin-9-yl)propan-2-yl)oxy)methyl)(((1-benzylpiperidin-4-ylidene)amino)oxy)phosphoryl)-L-alaninate], in that order: 14.8 nM and 51.7 nM.
For `CC(C)OC(=O)[C@H](C)NP(=O)(CO[C@H](C)Cn1cnc2c(N)ncnc21)ON=C1CCCCC1` (stereo partly drawn) [Example 8, isopropyl (((((R)-1-(6-amino-9H-purin-9-yl)propan-2-yl)oxy)methyl)((cyclohexylideneamino)oxy)phosphoryl)-L-alaninate], in that order: 67.7 nM and 92.1 nM.
For `CC(C)OC(=O)[C@H](C)NP(=O)(CO[C@H](C)Cn1cnc2c(N)ncnc21)ON=C1CCOCC1` (stereo partly drawn) [Example 9, isopropyl (((((R)-1-(6-amino-9H-purin-9-yl)propan-2-yl)oxy)methyl)(((tetrahydro-4H-pyran-4-ylidene)amino)oxy)phosphoryl)-L-alaninate], in that order: 165 nM and 360 nM.
For `CC(C)OC(=O)[C@H](C)NP(=O)(CO[C@H](C)Cn1cnc2c(N)ncnc21)ON=C(C1CCCC1)C1CCCC1` (stereo partly drawn) [Example 6, isopropyl (((((R)-1-(6-amino-9H-purin-9-yl)propan-2-yl)oxy)methyl)(((dicyclopentylmethyl-ene)amino)oxy)phosphoryl)-L-alaninate], the IC50 stood at 24.3 nM under setting [1] and 51.3 nM under setting [2].
Take `CC(C)=NOP(=O)(CO[C@H](C)Cn1cnc2c(N)ncnc21)N[C@@H](C)C(=O)OCc1ccccc1` (stereo partly drawn) [Example 5, benzyl (((R)-(((R)-1-(6-amino-9H-purin-9-yl)propan-2-yl)oxy)methyl)((propan-2-ylideneamino)oxy)phosphoryl)-L-alaninate; and benzyl (((S)-(((R)-1-(6-amino-9H-purin-9-yl)propan-2-yl)oxy)methyl)((propan-2-ylideneamino)oxy)phosphoryl)-L-alaninate]: the IC50 reads like this: under setting [1], 21.3 nM; under setting [2], 115 nM; (10% normal human serum, read-out: Viking, IC50 (10% NHS)) 15.2 nM; (50% normal human serum, read-out: Viking, IC50 (50% NHS)) 67 nM.
Take `C/C(=N\OP(=O)(CO[C@H](C)Cn1cnc2c(N)ncnc21)N[C@@H](C)C(=O)OC(C)C)c1ccncc1` (stereo partly drawn) [Example 16, isopropyl (((R)-(((R)-1-(6-amino-9H-purin-9-yl)propan-2-yl)oxy)methyl)((((E)-1-(pyridin-4-yl)ethylidene)amino)oxy)phosphoryl)-L-alaninate and isopropyl; and (((S)-(((R)-1-(6-amino-9H-purin-9-yl)propan-2-yl)oxy)methyl)((((E)-1-(pyridin-4-yl)ethylidene)amino)oxy)phosphoryl)-L-alaninate]: the IC50 turned out to be 780 nM under setting [1] and 1140 nM under setting [2].

The values are drawn from patent publication US10450335B2, “Antiviral oxime phosphoramide compounds” (Merck Sharp & Dohme Corp., priority 2015, dated 2019).
